Measured values: the supplement of paper PMC11061612

What was measured:
[1] = tested on: HCC70 (Breast Carcinoma); test: combination Emax (second highest fraction inhibited in the dose matrix, 72 h); higher = more inhibition; extreme values may be limits of the assay
In short: (§1)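 After 24 hours at 37°C and 5% CO2 in 1536-well plates, cells in DMEM/F12 or RPMI plus 10% FBS received two-drug dose matrices for 72 hours. Viability came from CellTiter-Glo 2.0 luminescence and was scaled as inhibition, anchored at 0 by vehicle wells and at 1 by blank wells. Combination Emax is taken as the second-highest inhibition in the matrix, and Bliss excess as the observed combination effect less EA + EB − EA·EB, with EA and EB the single-agent effects.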

[2] = tested on: NCI-H2087 (Lung Adenocarcinoma); test: as above
In short: as §1

[3] = tested on: JVM-2 (B-Cell Non-Hodgkin's Lymphoma); test: as above
In short: as §1

[4] = tested on: CA46 (Burkitt's Lymphoma); test: as above
In short: as §1

[5] = tested on: SK-HEP-1 (Hepatocellular Carcinoma); test: as above
In short: as §1

[6] = tested on: EB2 (Burkitt's Lymphoma); test: as above
In short: as §1

[7] = tested on: RH-41 (Rhabdomyosarcoma); test: as above
In short: as §1

[8] = tested on: MHH-ES-1 (Ewing's Sarcoma); test: as above
In short: as §1

[9] = tested on: IM-9 (Non-Cancerous); test: as above
In short: as §1

[10] = tested on: CAL-27 (Oral Cavity Carcinoma); test: as above
In short: as §1

[11] = tested on: DU-4475 (Breast Carcinoma); test: as above
In short: as §1

[12] = tested on: KYSE-140 (Esophageal Squamous Cell Carcinoma); test: as above
In short: as §1

[13] = tested on: HCC1428 (Breast Carcinoma); test: as above
In short: as §1

[14] = tested on: CESS (Acute Myeloid Leukemia); test: as above
In short: as §1

[15] = tested on: G-402 (Other Solid Carcinomas); test: as above
In short: as §1

[16] = tested on: HCC70 (Breast Carcinoma); test: Bliss excess, mean over the matrix (fraction); higher = more synergy
In short: as §1

[17] = tested on: NCI-H2228 (Lung Adenocarcinoma); test: as above
In short: as §1

[18] = tested on: JHU-022 (Oral Cavity Carcinoma); test: as above
In short: as §1

[19] = tested on: OACp4C (Esophageal Adenocarcinoma); test: as above
In short: as §1

[20] = tested on: HT55 (Colorectal Carcinoma); test: as above
In short: as §1
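Wherever Bliss excess, mean over the matrix is given: after 72 h of two-drug dosing.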

Structure (SMILES): Cc1c2c(nn1C)CSCc1cc(n(C)n1)CSc1cc(c3ccccc3c1)OCCCc1c(C(=O)O)n(C)c3c-2c(Cl)ccc13 [AZD5991] + CC1(C)CCC(CN2CCN(c3ccc(C(=O)NS(=O)(=O)c4ccc(NCC5CCOCC5)c([N+](=O)[O-])c4)c(Oc4cnc5[nH]ccc5c4)c3)CC2)=C(c2ccc(Cl)cc2)C1 [Venetoclax] (first compound max 1 µM, 7x7, partner max 1 µM)
- combination Emax [1]: 0.938
- combination Emax [2]: 0.153
- combination Emax [3]: 0.639
- combination Emax [4]: 0.118
- combination Emax [5]: 0.45
- combination Emax [6]: 0.332
- combination Emax [7]: 1
- combination Emax [8]: 0.852
- combination Emax [9]: 1
- combination Emax [10]: 0.955
- combination Emax [11]: 0.447
- combination Emax [12]: 0.485
- combination Emax [13]: 0.987
- combination Emax [14]: 0.525
- combination Emax [15]: 0.926
- Bliss excess [16]: 0.0042
- Bliss excess [17]: -0.0122
- Bliss excess [18]: -0.0291
- Bliss excess [19]: 0.13
- Bliss excess [20]: -0.0244

Structure (SMILES): CC(=O)c1c(C)c2cnc(Nc3ccc(N4CCNCC4)cn3)nc2n(C2CCCC2)c1=O [Palbociclib] + Cn1cnc2c(F)c(Nc3ccc(Br)cc3Cl)c(C(=O)NOCCO)cc21 [Selumetinib] (first compound max 10 µM, 7x7, partner max 10 µM)
- combination Emax [1]: 0.269
- combination Emax [2]: 0.501
- combination Emax [3]: 0.774
- combination Emax [4]: 0.345
- combination Emax [5]: 0.372
- combination Emax [6]: 0.492
- combination Emax [7]: 0.269
- combination Emax [8]: 0.352
- combination Emax [9]: 0.906
- combination Emax [10]: 0.627
- combination Emax [11]: 1
- combination Emax [12]: 0.188
- combination Emax [13]: 0.165
- combination Emax [14]: 0.658
- combination Emax [15]: 0.462
- Bliss excess [16]: 0.055
- Bliss excess [17]: -0.0822
- Bliss excess [18]: 0.0858
- Bliss excess [19]: -0.0359
- Bliss excess [20]: 0.0782
